Results taken from patent US20250042886A1, “BIS(HETERO)ARYL THIOETHER OXADIAZINES AS FUNGICIDAL COMPOUNDS” (Bayer Aktiengesellschaft, priority 2021, published 2025).

Experiments:
[1] = tested on: Colletotrichum lindemuthianum; experiment: Colletotrichum lindemuthianum in vitro cell test; format: cell-based; conditions: 144 h, liquid culture, 6 days incubation, read-out: efficacy (inhibition of fungal growth); for inhibition at 20 ppm: 20 ppm of active ingredient
Procedure, shortened: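 Inhibition of spore germination and mycelium growth, as absorbance relative to untreated wells, was read on day 6. Compounds from DMSO stocks were added to a spore suspension in glucose/peptone/yeast extract broth.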

Septoria tritici = Septoria tritici in vitro cell test; format: cell-based; conditions: Zymoseptoria tritici, 168 h, liquid culture, 7 days incubation, read-out: efficacy (inhibition of fungal growth); for inhibition at 20 ppm: 20 ppm of active ingredient
Experimental: B-11. Septoria tritici In Vitro Cell Test • Solvent: DMSO • Culture medium: 1 g KH2PO4 (VWR), 1 g K2HPO4 (VWR), 0.5 g Urea (VWR), 3 g KNO3 (Prolabo), 10 g saccharose (VWR), 0.5 g MgSO4, 7H2O (Sigma), 0.07 g CaCl2, 2H2O (Prolabo), 0.2 mg MnSO4, H2O (Sigma), 0.6 mg CuSO4, 5H2O (Sigma), 7.9 mg ZnSO4, 7H2O (Sigma), 0.1 mg H3BO3 (Merck), 0.14 mg NaMoO4, 2H2O (Sigma), 2 mg thiamine (Sigma), 0.1 mg biotine (VWR), 4 mg FeSO4, 7H2O (Sigma), QSP 1 liter • Inoculum: spore suspension Fungicides were solubilized in DMSO and the solution used to prepare the required range of concentrations. […] A spore suspension of S. tritici was prepared and diluted to the desired spore density. Fungicides were evaluated for their ability to inhibit spore germination and mycelium growth in liquid culture assay. The compounds were added in the desired concentration to the culture medium with spores. […] Inhibition of fungal growth was determined by comparing the absorbance values in wells containing the fungicides with the absorbance in control wells without fungicides.

[2] = tested on: Colletotrichum lindemuthianum; experiment: In vivo preventive test on Colletotrichum lindemuthianum (leaf spot on bean); conditions: 168 h, 500 ppm of active ingredient, sprayed on young bean plants 24 h before inoculation, evaluated 7 days after inoculation, read-out: efficacy
Procedure, shortened: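 Young bean plants sprayed preventively with compound in DMSO/acetone/Tween 80 diluted in water; controls got solvent mix only. After 24 hours, leaves sprayed with an aqueous spore suspension of C. lindemuthianum.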

Sphaerotheca fuliginea = experiment: In vivo preventive test on Sphaerotheca fuliginea (powdery mildew on cucurbits); conditions: Podosphaera fuliginea, 192 h; 500 ppm of active ingredient, sprayed on young gherkin plants 24 h before inoculation; evaluated 8 days after inoculation; read-out: efficacy
Experimental: B-3. […] The active ingredients were made soluble and homogenized in a mixture of Dimethyl sulfoxide/Acetone//Tween® 80 and then diluted in water to the desired concentration. The young plants of gherkin were treated by spraying the active ingredient prepared as described above. Control plants were treated only with an aqueous solution of Acetone/Dimethyl sulfoxide/Tween® 80. After 24 hours, the plants were contaminated by spraying the leaves with an aqueous suspension of Sphaerotheca fuliginea spores.

| SMILES | inhibition at 20 ppm [1] [%] | inhibition at 20 ppm (Septoria tritici) [%] | pest or weed control at 500 ppm [2] [%] | inhibition at 50 µM ([1]; 50 μMol/l of active ingredient) [%] | inhibition at 50 µM (Septoria tritici; 50 μMol/l of active ingredient) [%] | pest or weed control at 500 ppm (Sphaerotheca fuliginea) [%] |
| --- | --- | --- | --- | --- | --- | --- |
| Cc1cccc(Sc2cnc3ccccc3c2C2=NOC[C@H](Cc3ccc(C)cc3C)N2)c1 (racemic) [Compound I-023] | 90 to 100 | 90 to 100 | 70 to 79 |  |  |  |
| Cc1cc([C@@H]2CON=C(c3c(Sc4cccc(Cl)c4)nnc(C)c3C)N2)c(C)s1 (racemic) [Compound I-100] |  |  | 90 to 100 | 90 to 100 | 90 to 100 |  |
| Cc1ccc(C[C@@H]2CON=C(c3nc(C)ncc3Sc3cccc(Cl)c3)N2)c(Cl)c1 (racemic) [Compound I-033] | 90 to 100 | 90 to 100 | 90 to 100 |  |  | 90 to 100 |
| Cc1ccc(C[C@@H]2CON=C(c3c(Sc4cccc(C(F)(F)F)c4)nnc4ccccc34)N2)c(C)c1 (racemic) [Compound I-029] | 90 to 100 | 90 to 100 | 70 to 79 |  |  |  |
| FC(F)(F)c1cccc(Sc2cnc(Cl)cc2C2=NOC[C@@H](Cc3ccc(Cl)cc3Cl)N2)c1 (racemic) [Compound I-022] | 90 to 100 | 80 to 89 | 90 to 100 |  |  | 90 to 100 |
| Cc1cccc(Sc2cnc(C)nc2C2=NOC[C@@H](Cc3ccc(C)cc3C)N2)c1 (racemic) [Compound I-032] | 90 to 100 | 90 to 100 | 90 to 100 |  |  | 90 to 100 |
| Cc1ccc(C[C@@H]2CON=C(c3nc(C)ncc3Sc3cccc(Cl)c3)N2)c(C)c1 (racemic) [Compound I-031] | 90 to 100 | 80 to 89 | 90 to 100 |  |  | 90 to 100 |
| Cc1ccc(C[C@H]2CON=C(c3c(Sc4cccc(C(F)(F)F)c4)cnc4ccccc34)N2)c(C)c1 (racemic) [Compound I-030] | 90 to 100 | 70 to 79 | 90 to 100 |  |  |  |
